Reference: BindingDB's records for doi:10.1016/s0960-894x(02)00941-1 (Bristol-Myers Squibb Pharmaceuticals, 2003)

Target: T1, Tumor necrosis factor receptor superfamily member 1A (Homo sapiens, UniProt P19438)
T1 sequence (P19438 whole entry): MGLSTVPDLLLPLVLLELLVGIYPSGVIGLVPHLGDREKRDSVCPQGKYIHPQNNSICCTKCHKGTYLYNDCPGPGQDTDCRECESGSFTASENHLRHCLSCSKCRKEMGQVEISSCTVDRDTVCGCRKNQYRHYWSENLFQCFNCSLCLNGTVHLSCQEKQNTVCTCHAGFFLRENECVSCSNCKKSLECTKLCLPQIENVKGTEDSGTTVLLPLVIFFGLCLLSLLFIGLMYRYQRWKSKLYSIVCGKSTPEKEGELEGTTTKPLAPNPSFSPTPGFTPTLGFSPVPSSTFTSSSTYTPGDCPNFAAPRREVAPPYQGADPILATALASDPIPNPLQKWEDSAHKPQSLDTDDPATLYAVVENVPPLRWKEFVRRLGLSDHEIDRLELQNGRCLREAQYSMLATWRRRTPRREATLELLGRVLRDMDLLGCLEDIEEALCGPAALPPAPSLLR
Test: ChEBML_212214
Text: Inhibition of TNF-alpha binding to TNFRc1

Q: `C=CCn1c(S)c2c(=C)c3c(OC)cc(OC)cc3n2c1=S` [2-Allyl-6,8-dimethoxy-9-methyl-imidazo[1,5-a]indole-1,3-dithione] was tested. Which IC50 did it give?
A: Its IC50 is 210 nM.

Q: For `C=CCn1c(S)c2c(=C)c3c(OC)cc(OC)cc3n2c1=O` [2-Allyl-6,8-dimethoxy-9-methyl-1-thioxo-1,2-dihydro-imidazo[1,5-a]indol-3-one], which IC50 is on record?
A: Its IC50 is 210 nM.
